Results published in publication PMC5622171 (Nature Communications, 2017).

Legend:
Assay in all cases: KINOMEscan kinase profiling
Format in all cases: binding
CAMK4 = molecular target: T1, CAMK4 (Homo sapiens, UniProt Q16566); conditions: read-out: %Inhibition by 10 μM SPA70
T1 construct: purchased DiscoverX (Ambit Biosciences) KINOMEscan
In short: (§1)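 KINOMEscan profiling followed a published protocol. Kinases whose inhibition exceeded a set cut-off were then tested in a dilution series beginning at 30 µM.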

DYRK1A = molecular target: T2, DYRK1A (Homo sapiens, UniProt Q13627); conditions: read-out: %Inhibition by 10 μM SPA70
T2 construct: purchased DiscoverX (Ambit Biosciences) KINOMEscan
In short: as §1

PRKR = molecular target: T3, PRKR (Homo sapiens, UniProt P19525)
T3 construct: purchased DiscoverX (Ambit Biosciences) KINOMEscan
In short: as §1

[1] = molecular target: T4, RSK3(Kin.Dom.1-N-terminal) (Homo sapiens, UniProt Q15349); conditions: read-out: %Inhibition by 10 μM SPA70
T4 construct: RSK3(Kin.Dom.1-N-terminal); purchased DiscoverX (Ambit Biosciences) KINOMEscan
In short: as §1

DMPK = molecular target: T5, DMPK (Homo sapiens, UniProt Q09013); conditions: read-out: %Inhibition by 10 μM SPA70
T5 construct: purchased DiscoverX (Ambit Biosciences) KINOMEscan
In short: as §1

MTOR = molecular target: T6, MTOR (Homo sapiens, UniProt P42345); conditions: read-out: %Inhibition by 10 μM SPA70
T6 construct: purchased DiscoverX (Ambit Biosciences) KINOMEscan
In short: as §1

BTK = molecular target: T7, BTK (Homo sapiens, UniProt Q06187)
T7 construct: purchased DiscoverX (Ambit Biosciences) KINOMEscan
In short: as §1

CDKL3 = molecular target: T8, CDKL3 (Homo sapiens, UniProt Q8IVW4); conditions: read-out: %Inhibition by 10 μM SPA70
T8 construct: purchased DiscoverX (Ambit Biosciences) KINOMEscan
In short: as §1

PFTAIRE2 = molecular target: T9, PFTAIRE2 (Homo sapiens, UniProt Q96Q40); conditions: read-out: %Inhibition by 10 μM SPA70
T9 construct: purchased DiscoverX (Ambit Biosciences) KINOMEscan
In short: as §1

YSK4 = molecular target: T10, YSK4 (Homo sapiens, UniProt Q56UN5); conditions: read-out: %Inhibition by 10 μM SPA70
T10 construct: purchased DiscoverX (Ambit Biosciences) KINOMEscan
In short: as §1

MAPKAPK5 = molecular target: T11, MAPKAPK5 (Homo sapiens, UniProt Q8IW41); conditions: read-out: %Inhibition by 10 μM SPA70
T11 construct: purchased DiscoverX (Ambit Biosciences) KINOMEscan
In short: as §1

PFTK1 = molecular target: T12, PFTK1 (Homo sapiens, UniProt O94921)
T12 construct: purchased DiscoverX (Ambit Biosciences) KINOMEscan
In short: as §1

FLT3 = molecular target: T13, FLT3 (Homo sapiens, UniProt P36888); conditions: read-out: %Inhibition by 10 μM SPA70
T13 construct: purchased DiscoverX (Ambit Biosciences) KINOMEscan
In short: as §1

LATS1 = molecular target: T14, LATS1 (Homo sapiens, UniProt O95835); conditions: read-out: %Inhibition by 10 μM SPA70
T14 construct: purchased DiscoverX (Ambit Biosciences) KINOMEscan
In short: as §1

AURKA = molecular target: T15, AURKA (Homo sapiens, UniProt O14965); conditions: read-out: %Inhibition by 10 μM SPA70
T15 construct: purchased DiscoverX (Ambit Biosciences) KINOMEscan
In short: as §1

GRK1 = molecular target: T16, GRK1 (Homo sapiens, UniProt Q15835); conditions: read-out: %Inhibition by 10 μM SPA70
T16 construct: purchased DiscoverX (Ambit Biosciences) KINOMEscan
In short: as §1

PLK1 = molecular target: T17, PLK1 (Homo sapiens, UniProt P53350); conditions: read-out: %Inhibition by 10 μM SPA70
T17 construct: purchased DiscoverX (Ambit Biosciences) KINOMEscan
In short: as §1

NEK1 = molecular target: T18, NEK1 (Homo sapiens, UniProt Q96PY6); conditions: read-out: %Inhibition by 10 μM SPA70
T18 construct: purchased DiscoverX (Ambit Biosciences) KINOMEscan
In short: as §1

AAK1 = molecular target: T19, AAK1 (Homo sapiens, UniProt Q2M2I8); conditions: read-out: %Inhibition by 10 μM SPA70
T19 construct: purchased DiscoverX (Ambit Biosciences) KINOMEscan
In short: as §1

IKK-beta = molecular target: T20, IKK-beta (Homo sapiens, UniProt O14920); conditions: read-out: %Inhibition by 10 μM SPA70
T20 construct: purchased DiscoverX (Ambit Biosciences) KINOMEscan
In short: as §1

MLCK = molecular target: T21, MLCK (Homo sapiens, UniProt Q32MK0); conditions: read-out: %Inhibition by 10 μM SPA70
T21 construct: purchased DiscoverX (Ambit Biosciences) KINOMEscan
In short: as §1

TRKC = molecular target: T22, TRKC (Homo sapiens, UniProt Q16288); conditions: read-out: %Inhibition by 10 μM SPA70
T22 construct: purchased DiscoverX (Ambit Biosciences) KINOMEscan
In short: as §1

p38-gamma = molecular target: T23, p38-gamma (Homo sapiens, UniProt P53778); conditions: read-out: %Inhibition by 10 μM SPA70
T23 construct: purchased DiscoverX (Ambit Biosciences) KINOMEscan
In short: as §1

DYRK2 = molecular target: T24, DYRK2 (Homo sapiens, UniProt Q92630); conditions: read-out: %Inhibition by 10 μM SPA70
T24 construct: purchased DiscoverX (Ambit Biosciences) KINOMEscan
In short: as §1

YES = molecular target: T25, YES (Homo sapiens, UniProt P07947); conditions: read-out: %Inhibition by 10 μM SPA70
T25 construct: purchased DiscoverX (Ambit Biosciences) KINOMEscan
In short: as §1

TRKB = molecular target: T26, TRKB (Homo sapiens, UniProt Q16620); conditions: read-out: %Inhibition by 10 μM SPA70
T26 construct: purchased DiscoverX (Ambit Biosciences) KINOMEscan
In short: as §1

MAP3K4 = molecular target: T27, MAP3K4 (Homo sapiens, UniProt Q9Y6R4); conditions: read-out: %Inhibition by 10 μM SPA70
T27 construct: purchased DiscoverX (Ambit Biosciences) KINOMEscan
In short: as §1

BRK = molecular target: T28, BRK (Homo sapiens, UniProt Q13882); conditions: read-out: %Inhibition by 10 μM SPA70
T28 construct: purchased DiscoverX (Ambit Biosciences) KINOMEscan
In short: as §1

DLK = molecular target: T29, DLK (Homo sapiens, UniProt Q12852)
T29 construct: purchased DiscoverX (Ambit Biosciences) KINOMEscan
In short: as §1

RIPK2 = molecular target: T30, RIPK2 (Homo sapiens, UniProt O43353); conditions: read-out: %Inhibition by 10 μM SPA70
T30 construct: purchased DiscoverX (Ambit Biosciences) KINOMEscan
In short: as §1

ITK = molecular target: T31, ITK (Homo sapiens, UniProt Q08881)
T31 construct: purchased DiscoverX (Ambit Biosciences) KINOMEscan
In short: as §1

DDR1 = molecular target: T32, DDR1 (Homo sapiens, UniProt Q08345); conditions: read-out: %Inhibition by 10 μM SPA70
T32 construct: purchased DiscoverX (Ambit Biosciences) KINOMEscan
In short: as §1

PRKG2 = molecular target: T33, PRKG2 (Homo sapiens, UniProt Q13237); conditions: read-out: %Inhibition by 10 μM SPA70
T33 construct: purchased DiscoverX (Ambit Biosciences) KINOMEscan
In short: as §1

EPHA3 = molecular target: T34, EPHA3 (Homo sapiens, UniProt P29320); conditions: read-out: %Inhibition by 10 μM SPA70
T34 construct: purchased DiscoverX (Ambit Biosciences) KINOMEscan
In short: as §1

DRAK2 = molecular target: T35, DRAK2 (Homo sapiens, UniProt O94768); conditions: read-out: %Inhibition by 10 μM SPA70
T35 construct: purchased DiscoverX (Ambit Biosciences) KINOMEscan
In short: as §1

ADCK3 = molecular target: T36, ADCK3 (Homo sapiens, UniProt Q8NI60); conditions: read-out: %Inhibition by 10 μM SPA70
T36 construct: purchased DiscoverX (Ambit Biosciences) KINOMEscan
In short: as §1

CAMK1D = molecular target: T37, CAMK1D (Homo sapiens, UniProt Q8IU85); conditions: read-out: %Inhibition by 10 μM SPA70
T37 construct: purchased DiscoverX (Ambit Biosciences) KINOMEscan
In short: as §1

PAK1 = molecular target: T38, PAK1 (Homo sapiens, UniProt Q13153); conditions: read-out: %Inhibition by 10 μM SPA70
T38 construct: purchased DiscoverX (Ambit Biosciences) KINOMEscan
In short: as §1

CDKL5 = molecular target: T39, CDKL5 (Homo sapiens, UniProt O76039); conditions: read-out: %Inhibition by 10 μM SPA70
T39 construct: purchased DiscoverX (Ambit Biosciences) KINOMEscan
In short: as §1

HPK1 = molecular target: T40, HPK1 (Homo sapiens, UniProt Q92918); conditions: read-out: %Inhibition by 10 μM SPA70
T40 construct: purchased DiscoverX (Ambit Biosciences) KINOMEscan
In short: as §1

OSR1 = molecular target: T41, OSR1 (Homo sapiens, UniProt O95747); conditions: read-out: %Inhibition by 10 μM SPA70
T41 construct: purchased DiscoverX (Ambit Biosciences) KINOMEscan
In short: as §1

SNRK = molecular target: T42, SNRK (Homo sapiens, UniProt Q9NRH2); conditions: read-out: %Inhibition by 10 μM SPA70
T42 construct: purchased DiscoverX (Ambit Biosciences) KINOMEscan
In short: as §1

T41 sequence (O95747 whole entry): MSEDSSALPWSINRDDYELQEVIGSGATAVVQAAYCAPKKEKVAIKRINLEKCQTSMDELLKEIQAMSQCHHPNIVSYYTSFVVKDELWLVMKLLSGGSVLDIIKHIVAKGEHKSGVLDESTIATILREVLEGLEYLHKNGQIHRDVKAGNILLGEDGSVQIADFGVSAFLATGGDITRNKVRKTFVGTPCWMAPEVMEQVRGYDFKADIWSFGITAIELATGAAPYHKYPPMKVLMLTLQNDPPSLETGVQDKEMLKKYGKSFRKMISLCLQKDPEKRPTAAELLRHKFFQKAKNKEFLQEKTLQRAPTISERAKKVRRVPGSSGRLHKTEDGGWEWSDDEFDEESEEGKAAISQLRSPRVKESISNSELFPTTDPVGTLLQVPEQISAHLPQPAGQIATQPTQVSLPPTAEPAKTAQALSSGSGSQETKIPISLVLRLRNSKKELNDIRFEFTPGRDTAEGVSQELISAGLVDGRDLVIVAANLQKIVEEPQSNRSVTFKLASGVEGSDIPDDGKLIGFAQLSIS
T29 sequence (Q12852 whole entry): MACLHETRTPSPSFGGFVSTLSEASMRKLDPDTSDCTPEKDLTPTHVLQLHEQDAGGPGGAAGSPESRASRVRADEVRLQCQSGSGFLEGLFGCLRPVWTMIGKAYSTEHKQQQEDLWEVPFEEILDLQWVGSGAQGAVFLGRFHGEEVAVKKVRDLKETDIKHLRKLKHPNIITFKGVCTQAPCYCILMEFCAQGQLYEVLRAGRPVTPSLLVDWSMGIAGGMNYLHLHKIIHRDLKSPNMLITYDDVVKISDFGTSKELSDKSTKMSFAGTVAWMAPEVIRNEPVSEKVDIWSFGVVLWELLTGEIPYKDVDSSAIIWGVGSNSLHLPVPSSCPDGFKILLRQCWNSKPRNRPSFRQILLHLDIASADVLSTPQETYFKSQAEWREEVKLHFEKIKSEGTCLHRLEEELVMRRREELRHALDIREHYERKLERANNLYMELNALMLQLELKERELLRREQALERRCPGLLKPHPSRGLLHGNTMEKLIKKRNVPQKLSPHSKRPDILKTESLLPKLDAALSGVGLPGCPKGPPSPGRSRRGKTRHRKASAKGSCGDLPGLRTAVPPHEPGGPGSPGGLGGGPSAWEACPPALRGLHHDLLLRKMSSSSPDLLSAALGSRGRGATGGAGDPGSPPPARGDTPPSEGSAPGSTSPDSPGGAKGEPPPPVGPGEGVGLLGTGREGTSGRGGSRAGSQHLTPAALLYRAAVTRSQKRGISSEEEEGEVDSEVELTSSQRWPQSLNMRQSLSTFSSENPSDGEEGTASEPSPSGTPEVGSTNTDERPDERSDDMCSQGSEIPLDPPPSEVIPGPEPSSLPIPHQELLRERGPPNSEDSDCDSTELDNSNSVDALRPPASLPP
T24 sequence (Q92630 whole entry): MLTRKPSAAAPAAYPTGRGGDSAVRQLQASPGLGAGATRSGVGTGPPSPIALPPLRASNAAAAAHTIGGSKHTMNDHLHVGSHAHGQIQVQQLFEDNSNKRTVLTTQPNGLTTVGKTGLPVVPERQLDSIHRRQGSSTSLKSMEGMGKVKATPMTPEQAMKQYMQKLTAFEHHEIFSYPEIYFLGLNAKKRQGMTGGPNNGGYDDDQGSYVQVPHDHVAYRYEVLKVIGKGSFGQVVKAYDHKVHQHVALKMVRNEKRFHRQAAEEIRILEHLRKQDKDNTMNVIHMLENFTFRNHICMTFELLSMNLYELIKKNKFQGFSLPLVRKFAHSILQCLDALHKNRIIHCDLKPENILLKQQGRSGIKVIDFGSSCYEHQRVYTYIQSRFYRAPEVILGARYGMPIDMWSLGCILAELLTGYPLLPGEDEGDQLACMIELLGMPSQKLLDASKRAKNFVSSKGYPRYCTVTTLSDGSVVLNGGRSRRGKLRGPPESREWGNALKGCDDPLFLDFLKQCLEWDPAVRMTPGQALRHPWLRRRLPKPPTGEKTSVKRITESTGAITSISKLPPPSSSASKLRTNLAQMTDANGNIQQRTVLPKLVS
T40 sequence (Q92918 whole entry): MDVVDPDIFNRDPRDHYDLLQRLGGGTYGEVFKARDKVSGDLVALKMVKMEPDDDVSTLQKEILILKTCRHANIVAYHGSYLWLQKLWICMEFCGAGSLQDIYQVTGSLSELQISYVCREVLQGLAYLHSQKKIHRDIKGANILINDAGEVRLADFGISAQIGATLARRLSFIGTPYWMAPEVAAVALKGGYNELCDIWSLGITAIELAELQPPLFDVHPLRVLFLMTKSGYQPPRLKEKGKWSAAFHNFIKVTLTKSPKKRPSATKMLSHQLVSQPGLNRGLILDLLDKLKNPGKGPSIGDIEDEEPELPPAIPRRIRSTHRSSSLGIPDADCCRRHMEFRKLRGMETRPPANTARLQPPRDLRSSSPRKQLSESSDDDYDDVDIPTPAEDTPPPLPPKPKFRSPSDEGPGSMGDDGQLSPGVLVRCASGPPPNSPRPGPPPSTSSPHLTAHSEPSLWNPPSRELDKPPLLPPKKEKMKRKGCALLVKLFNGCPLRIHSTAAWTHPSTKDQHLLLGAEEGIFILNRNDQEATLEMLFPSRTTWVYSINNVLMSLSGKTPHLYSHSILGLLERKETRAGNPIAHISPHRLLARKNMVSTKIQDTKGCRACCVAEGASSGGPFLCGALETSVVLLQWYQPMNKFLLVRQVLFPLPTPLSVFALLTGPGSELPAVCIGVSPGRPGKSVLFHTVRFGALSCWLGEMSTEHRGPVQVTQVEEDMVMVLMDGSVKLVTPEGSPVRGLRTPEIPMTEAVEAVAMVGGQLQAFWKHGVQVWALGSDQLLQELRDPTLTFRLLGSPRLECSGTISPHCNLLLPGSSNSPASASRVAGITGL
T9 sequence (Q96Q40 whole entry): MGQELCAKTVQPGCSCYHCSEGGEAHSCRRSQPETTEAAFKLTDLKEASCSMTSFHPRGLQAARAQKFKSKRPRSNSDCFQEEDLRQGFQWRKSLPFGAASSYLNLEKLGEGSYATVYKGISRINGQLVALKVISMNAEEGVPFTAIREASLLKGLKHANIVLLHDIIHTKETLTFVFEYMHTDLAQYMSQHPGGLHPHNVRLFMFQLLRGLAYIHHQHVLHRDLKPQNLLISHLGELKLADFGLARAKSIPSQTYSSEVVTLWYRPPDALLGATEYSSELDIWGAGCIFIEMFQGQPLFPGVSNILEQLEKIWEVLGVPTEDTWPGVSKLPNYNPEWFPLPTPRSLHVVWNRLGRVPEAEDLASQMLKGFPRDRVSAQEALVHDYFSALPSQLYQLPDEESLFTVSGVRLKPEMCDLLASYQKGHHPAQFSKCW
T13 sequence (P36888 27-993): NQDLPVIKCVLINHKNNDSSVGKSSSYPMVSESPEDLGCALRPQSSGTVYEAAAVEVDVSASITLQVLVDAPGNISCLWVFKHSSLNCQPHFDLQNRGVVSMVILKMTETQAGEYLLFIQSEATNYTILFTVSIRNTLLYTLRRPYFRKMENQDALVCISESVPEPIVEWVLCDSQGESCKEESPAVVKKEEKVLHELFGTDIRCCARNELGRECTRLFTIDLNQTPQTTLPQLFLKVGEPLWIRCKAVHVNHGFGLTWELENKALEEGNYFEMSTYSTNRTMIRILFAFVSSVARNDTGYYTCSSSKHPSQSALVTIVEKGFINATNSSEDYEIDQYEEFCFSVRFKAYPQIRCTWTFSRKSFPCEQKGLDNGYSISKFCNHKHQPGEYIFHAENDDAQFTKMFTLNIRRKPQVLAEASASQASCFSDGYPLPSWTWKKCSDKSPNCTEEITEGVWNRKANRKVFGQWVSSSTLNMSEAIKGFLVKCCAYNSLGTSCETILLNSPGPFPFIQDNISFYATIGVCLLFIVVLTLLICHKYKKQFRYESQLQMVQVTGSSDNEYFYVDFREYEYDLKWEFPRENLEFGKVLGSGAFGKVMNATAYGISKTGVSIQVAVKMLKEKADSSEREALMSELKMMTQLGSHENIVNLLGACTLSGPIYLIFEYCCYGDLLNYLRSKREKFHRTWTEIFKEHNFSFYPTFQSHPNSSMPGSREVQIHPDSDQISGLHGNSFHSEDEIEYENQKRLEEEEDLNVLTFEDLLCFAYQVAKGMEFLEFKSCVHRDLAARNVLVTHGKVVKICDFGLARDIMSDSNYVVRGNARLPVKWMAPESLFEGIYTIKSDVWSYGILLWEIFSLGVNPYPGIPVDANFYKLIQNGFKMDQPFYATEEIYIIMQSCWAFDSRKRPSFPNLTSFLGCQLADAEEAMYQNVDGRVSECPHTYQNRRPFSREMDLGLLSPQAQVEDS
T21 sequence (Q32MK0 whole entry): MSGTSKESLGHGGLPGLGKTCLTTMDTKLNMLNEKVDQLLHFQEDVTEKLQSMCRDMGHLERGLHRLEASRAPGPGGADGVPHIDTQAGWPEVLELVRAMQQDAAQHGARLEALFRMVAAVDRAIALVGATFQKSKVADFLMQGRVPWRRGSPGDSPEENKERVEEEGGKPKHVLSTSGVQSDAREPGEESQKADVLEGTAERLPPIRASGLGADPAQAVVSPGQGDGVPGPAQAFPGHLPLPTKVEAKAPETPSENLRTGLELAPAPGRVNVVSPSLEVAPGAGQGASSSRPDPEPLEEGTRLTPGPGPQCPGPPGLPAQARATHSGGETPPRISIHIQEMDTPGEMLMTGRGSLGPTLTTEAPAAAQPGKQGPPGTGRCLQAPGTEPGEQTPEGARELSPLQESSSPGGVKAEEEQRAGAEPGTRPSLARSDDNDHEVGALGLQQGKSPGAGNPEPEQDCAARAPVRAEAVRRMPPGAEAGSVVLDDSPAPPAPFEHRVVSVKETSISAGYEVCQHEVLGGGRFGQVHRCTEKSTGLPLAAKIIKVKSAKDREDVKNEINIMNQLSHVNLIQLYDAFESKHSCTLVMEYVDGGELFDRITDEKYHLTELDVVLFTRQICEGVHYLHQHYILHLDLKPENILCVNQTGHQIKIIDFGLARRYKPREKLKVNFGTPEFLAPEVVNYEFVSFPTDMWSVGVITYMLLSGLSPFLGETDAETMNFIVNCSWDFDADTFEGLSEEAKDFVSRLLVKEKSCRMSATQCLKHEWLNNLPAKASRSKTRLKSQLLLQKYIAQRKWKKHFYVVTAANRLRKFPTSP

## COc1ccc(OC)c(-n2nnc(S(=O)(=O)c3ccc(C(C)(C)C)cc3)c2C)c1 [SPA70]
CAMK4
  inhibition at 10 µM: 0%
DYRK1A
  inhibition at 10 µM: 0%
PRKR
  %Inhibition by 10 μM SPA70: 26%
[1]
  inhibition at 10 µM: 0%
DMPK
  inhibition at 10 µM: 0%
MTOR
  inhibition at 10 µM: 0%
BTK
  %Inhibition by 10 μM SPA70: 23%
CDKL3
  inhibition at 10 µM: 6%
PFTAIRE2
  inhibition at 10 µM: 0%
YSK4
  inhibition at 10 µM: 0%
MAPKAPK5
  inhibition at 10 µM: 12%
PFTK1
  %Inhibition by 10 μM SPA70: 0%
FLT3
  inhibition at 10 µM: 0%
LATS1
  inhibition at 10 µM: 0%
AURKA
  inhibition at 10 µM: 0%
GRK1
  inhibition at 10 µM: 0%
PLK1
  inhibition at 10 µM: 0%
NEK1
  inhibition at 10 µM: 0%
AAK1
  inhibition at 10 µM: 11%
IKK-beta
  inhibition at 10 µM: 26%
MLCK
  inhibition at 10 µM: 0%
TRKC
  inhibition at 10 µM: 0%
p38-gamma
  inhibition at 10 µM: 8%
DYRK2
  inhibition at 10 µM: 12%
YES
  inhibition at 10 µM: 2%
TRKB
  inhibition at 10 µM: 0%
MAP3K4
  inhibition at 10 µM: 0%
BRK
  inhibition at 10 µM: 0%
DLK
  %Inhibition by 10 μM SPA70: 4%
RIPK2
  inhibition at 10 µM: 0%
ITK
  %Inhibition by 10 μM SPA70: 0%
DDR1
  inhibition at 10 µM: 0%
PRKG2
  inhibition at 10 µM: 12%
EPHA3
  inhibition at 10 µM: 26%
DRAK2
  inhibition at 10 µM: 5%
ADCK3
  inhibition at 10 µM: 0%
CAMK1D
  inhibition at 10 µM: 20%
PAK1
  inhibition at 10 µM: 0%
CDKL5
  inhibition at 10 µM: 8%
HPK1
  inhibition at 10 µM: 1%
OSR1
  inhibition at 10 µM: 14%
SNRK
  inhibition at 10 µM: 0%
